This is an account of results in patent publication US20090062255A1, “TUMOR-TARGETING EVALUATION METHODOLOGY AND COMPOUNDS RELATED THERETO” (THALLION PHARMACEUTICALS INC., priority 2007, published 2009).

“And” between values parts separate entries of the source, which are not always exact repeats. Equal entries are not always repeated.

The test system of series [1] is ERK phosphorylation, human pancreatic MiaPaCa-2 cell line (mutated K-Ras). In words: EGF-stimulated ERK phosphorylation in MiaPaCa-2 cells. Format: cell-based. An excerpt:
To evaluate whether ECO-4601 interferes with K-Ras signalling, the human pancreatic MiaPaCa-2 cell line, a tumor cell line known to express mutated K-Ras, was employed.

The test system of another series is human MiaPaCa-2 tumors. Briefly: Human MiaPaCa-2 tumors in mice, antitumor efficacy. Format: in vivo. Conditions: 30 mg/kg SC, Q1D×5 for 3 wk, established MiaPaCa-2 tumors. The method, then: Mice bearing established (100 mm^3) human MiaPaCa-2 tumors were dosed with 30 mg/kg (Q1D×5 for 3 wk; SC administration). The positive control group was treated with gemcitabine at 60 mg/kg once a day on Monday and Thursday (TWx4). ECO-4601 as a single agent was statistically different from the vehicle control group (P ˜0.008) following SC daily dosing resulting in a T/C of 56% (FIG. 12).

Series [2] in a line: ECO-4601 concentrations in plasma and tissues, rat C6 orthotopic brain tumors. Format: in vivo. The following applies: individual rats. The method, then: Rat C6 glioma cells were purchased from the American Type Culture Collection (Manessa, Va.) and grown in Dulbecco's modified Eagle's medium (DMEM) supplemented with 10% FBS, 125 U/mL penicillin G, 125 μg/mL streptomycin sulfate, and 2.2 μg/mL amphotericin B (Fungizone). All culture reagents were obtained from Gibco BRL (Invitrogen Burlington, ON, Canada). Cultures were grown in monolayers and maintained at 37° C. in a humidified atmosphere of 5% CO2. Upon reaching confluency, spheroids were prepared using the hanging drop method previously described by Del Duca et al. ((2004) J. Neurooncol 67, p 295). Briefly, 20 μl drops of DMEM containing 15,000 cells each were suspended from the lids of culture dishes and the resulting aggregates were transferred to culture dishes base-coated with agar after 72 hours. The resulting spheroids were adequate for in vivo implantation after 48 hours of incubation on agar.
Male, Sprague-Dawley rats (250-300 g) (Charles River Canada, St Constant, QC) were anesthetized with 50 mg/kg ketamine and 10 mg/kg xylazine. The right cortical surface in the parietal-occipital region was exposed by craniectomy using a high-powered drill (DREMEL, USA) and the underlying dura and its vessels were carefully removed under a surgical microscope. A piece of the cortex was removed to expose the underlying white matter and a single speroid containing rat C6 tumor cells was placed into the surgical defect. The craniectomy was covered with bone wax (Ethicon, Peterborough, Canada) and the overlying skin sutured. Following recovery from anesthesia, the animals were fed and had access to water ad libitum.
Following completion of in vivo studies, animals were sacrificed by anesthetic overdose and decapitated. Brain, tumor, and liver were snap-frozen in liquid nitrogen and stored frozen (−70° C.±10° C.). For blood samples, each blood sample was collected into a K2-EDTA tube and kept on wet ice for a maximum of 30 minutes. Blood samples were centrifuged under refrigeration (2 to 8° C.) for 10 minutes at 1,500 g (RCF). A volume of 25 μL of aqueous 4% w/v L-ascorbic acid was added to a volume of 225 μL of rat plasma in a clean tube, and the samples were thoroughly mixed by inversion. A volume of 125 uL of the resulting mixture was transferred to a separate tube for bioanalysis, while the remaining mixture was maintained as a backup, and both the bioanalysis and back-up portions were frozen on dry ice and stored frozen (−70° C.±10° C.).
Rat plasma (50 μL) was mixed with 500 μL of acetone containing 100 ng/mL of the internal standard (Compound 2). The mixture was vortexed for 20 seconds, incubated 10 min at RT and centrifuged at 12,000×g for 10 minutes. The supernatants were transferred into HPLC injection vials and 20 μL were analyzed by tandem liquid chromatography/mass spectrometry. The chromatography was achieved on a Luna C18 column (30×4.6 mm, 5 μm particles; Phenomenex, Torrance, Calif.) with a mobile phase consisting of 100% methanol: 0.5% formic acid in water (85:15) at a flow rate of 1 mL/min. Flow was split 1:10 prior to introduction into the ESI source. The nebulization was assisted by and octagonal jet stream of nitrogen heated at […] and set at a flow of 4 L/min. The ion source voltage (ISV) was at 4000 V in positive mode, declustering potential (OR-QO) was set to 20 V, and the collision energy (Elab) was set to 25 V. The mass transition monitered for ECO-4601 and the internal standard were m/z 463→271 and 477→273, respectively. […]

Series [3] addresses T1, peripheral benzodiazepine receptor (PBR) (Rattus norvegicus, UniProt P16257).
T1 construct: CBR and PBR were obtained from rat brain and heart membrane-fractions, respectively; from tissue; host or cells: Wistar rat heart membranes
Briefly: In-house PBR binding assay ([3H]PK11195, rat heart mitochondrial membranes).

In the next series the test system is brain tumor cell lines. In words: MTT cytotoxicity, panel of brain tumor cell lines (summary). The following applies: 96 hours; read-out: IC50 values against brain tumor cell lines, range. The format is cell-based. The method, then: The cytotoxic activity of Compound 1 was further evaluated using a panel of brain tumor cell lines. This study was performed in collaboration with INSERM (Grenoble, France). Tumor cells (5,000 to 10,000 cells per well depending on their doubling time) were plated in 96-well flat-bottom plates and incubated for 24 hours before treatment. Tumor cells were then incubated for 96 hours with seven different concentrations of Compound 1: […], 0.01, and 0.001 μM. The in vitro cytotoxic activity was determined by a standard MTT assay.

Series [4] deals with HT-29, SF268, MDA-MB-231 and PC-3 cell lines. In words: In vitro cytotoxic activity against four cell lines (overall statement). The following applies: second test. The format is cell-based. An excerpt: Procedures used for each series of tests are described below.
Compound 2 has an unexpected increase in cytotoxic activity compared to parent Compound 1. […] Cytotoxic activity (GI50) of Compound 2 for the other three strains was outside the expected range of concentrations used in the first tests.

`CC(C)=CCC/C(C)=C/CC/C(C)=C/CN1C(=O)c2cccc(O)c2Nc2c(O)cc(O)cc21` [Compound 1, 10-farnesyl-4,6,8-trihydroxy-5,10-dihydrodibenzo[b,e][1,4]diazepin-11-one]: the “inhibition of EGF-stimulated ERK phosphorylation” value in series [1] was “dose and time dependent inhibition”. Further, the T/C in the series with human MiaPaCa-2 tumors turned out to be 56%. Further, in series [2], the “Ratio Tumor/Brain” value was 10.1 and 2.1 and 5.2 and 11.30 and 3.5; the Tumor is 2701 ng/g and 239 ng/g and 509 ng/g and 2891 ng/g and 1145 ng/g. Further, in series [2] (C6 orthotopic brain tumor), the Brain was 249 ng/g and 115 ng/g and 98 ng/g and 254 ng/g and 327 ng/g; the Liver is 994 ng/g and 164 ng/g and 1083 ng/g and 2767 ng/g and 123 ng/g; the “Pasma ng/mL” value was 13,088 ng/mL and 2,657 ng/mL and 5,727 ng/mL and 10,212 ng/mL and 1,177 ng/mL. Also, in series [3], the EC50 stood at 2800 nM and the “PBR binding (in words)” value is on record as “bind the PBR”. The Ki in series [3] (Ki=EC50/(1+[ligand]/Kd), [ligand]=1.6 nM, read-out: calculated Ki) was approximately 1400 nM. In series [3] (in-house radioligand-binding assay), this compound gave an IC50 of 2700 nM. Further, the IC50 with brain tumor cell lines was 1600 to 8900 nM.

As for `CC(C)=CCC/C(C)=C/CC/C(C)=C/CN1C(=O)c2cccc(O)c2N(C)c2c(O)cc(O)cc21` [Compound 2, 10-farnesyl-4,6,8-trihydroxy-5-methyl-5,10-dihydro-dibenzo[b,e][1,4]diazepin-11-one], the “increase in potency compared to Compound 1” value in series [4] is given as 100 fold.
